Measurements published in EP2197279B1, “C10-SUBSTITUTED CAMPTOTHECIN ANALOGS” (BIONUMERIK PHARMACEUTICALS, INC., priority 2007, dated 2009).

Tests used:
[1] = test system: A2780/WT (wild-type) cells; experiment: Sulforhodamine B (SRB) cytotoxicity assay in A2780/WT cells; type: cell-based
Description: (§1) Each of the testing conditions used in this study in both A2780/WT (wild-type) and A2780/DX5 cells were repeated in five to fifteen experiments that were performed on separate days. Each experiment consisted of one microtiter plate with at least eight individual assays of a given drug treatment condition on the plate. The sulforhodamine B (SRB) assay was used to assess cytotoxicity and absorbance at 570 nm (A570) in order to calculate the percentage of cell control (or percent cell survival) for the various treatment conditions in the plate wells.
(§2) Roswell Park Memorial Institute (RPMI 1640) medium, fetal bovine serum (FBS), and L-glutamine were purchased from Gibco BRL. Drugs were dissolved in sterile dimethylsulfoxide (DMSO), from American Type Culture Collection (ATCC) for stock solutions (2.5 to 5.0 mM). Subsequent dilutions were made using cell culture medium (prior to adding the drug to cells). SRB was purchased from Sigma and dissolved in 1.0% acetic acid. Trichloroacetic acid was purchased from VWR International.
(§3) Cells were manipulated in a Class IIA/B3 Biological Safety Cabinet (Forma Scientific) and maintained at 37°C in a humidified atmosphere containing 5% CO2 in a water-jacketed cell culture incubator (Forma Scientific). Cells were counted using a Coulter-Zl counter (Beckman-Coulter). Following drug treatment, plates were washed using a Biomek 2000 station (Beckman) and, following exposure to SRB dye, plates were washed using an automated plate washer (Model EL404, Bio-Tek Instruments). Percentage of control was correlated to A570 values and determined using a Model EL800 plate reader (Bio-Tek Instruments).
(§4) Population doubling times for the two cell lines used in this study encompassed a total of five cell doublings corresponding to approximately 5 days for A2780/WT and A2780/DX5 cells. A2780/WT and A2780/DX5 cells were cultured in RPMI 1640 medium supplemented with 10% fetal bovine serum and 1 mM of L-glutamine. Both cell lines were maintained as monolayered cultures in T-25 or T-75 flasks and then seeded to microtiter plate wells for experiments described herein. Prior to SRB assays, cell viability was monitored by evaluation of microtiter plate wells. Dead cells detach and float while living cells remain attached to the bottom of the cell well.
(§5) The sulforhodamine B (SRB) cytotoxicity assay (see, Skehan P, et al., New colorimetric cytotoxicity assay for anticancer-drug screening. J. Natl. Cancer Inst. 82: 1107-1112 (1990)) was used to determine the cytotoxic effects of BNP1350, SN-38, topotecan, 9-NH2-CPT, and 9-NO2-CPT on cell growth in vitro. Briefly, after the medium was aspirated from individual plate wells, trichloroacetic acid (100 µL of 10.0% solution) was added to each well, and the plates were incubated at 4°C for at least 1 hour. The plates were washed five-times with water using an automated microplate washer (Model EL 404, Bio-Tek Instruments), SRB solution (100 µL of 0.4 grams SRB dissolved in 100 mL 1.0% acetic acid) was added, and plates remained at room temperature for 15 minutes. The plates were then washed five-times using acetic acid (1.0 percent), air dried, and bound dye was solubilized in Tris base (150 µL, 10 mM). Plates were agitated (gently) for 5 minutes and the absorbance values of the SRB dye-protein adduct at a 570 nm wavelength (A570) were determined using an automated microtiter plate reader equipped with an A570 filter (Model EL800, BioTek Instruments). Table VII. Summary of Cytotoxicity Experiments in A2780/WT and DX5 Cells

A2780/DX5 cells = experiment: Sulforhodamine B (SRB) cytotoxicity assay in A2780/DX5 cells; type: cell-based; conditions: for IC50 Ratio: A2780/DX5 versus A2780/WT; for IC50: SRB assay
Description: as §1, §2, §3, §4, §5

[2] = over the first 48 hours, IV camptothecin sodium; cited from earlier work
human plasma proteins = experiment: Percent of free camptothecin analogs in human plasma (dialysis, HPLC); type: in vitro ADME; conditions: 100 nM Compound Concentrations
Description: Stocks of various camptothecin analogs were prepared in DMSO. […] Optimum HPLC detection conditions for each camptothecin analog were developed using traditional HPLC methods. Table VIII. Percent of Free Camptothecin Analogs in Human Plasma (100 nM Compound Concentrations)

[3] = clinical studies in Japan alone; cited from earlier work
[4] = test system: Angiogenesis was induced by fibroblast growth factor; conditions: dose levels of 210 mg/kg; cited from earlier work
[5] = cited from earlier work

With “7-(2'-Trimethylsilanyl) ethyl-10-(4-moroholinecarbonyloxy) camptothecin [Compound 12]” as the molecule, how does the IC50 [1] read?
Its IC50 is 65.6 nM.

And the “IC50 Ratio” value (A2780/DX5 cells)?
Its value is 2.1.

And the IC50 (A2780/DX5 cells)?
The IC50 was 135 nM.

Which results are given for “7-(2'-Trimethylsilanyl) ethyl-10-(ethoxycarbonylmethoxyl camptothecin [Compound 9]”?
IC50 [1]: 73.9 nM; IC50 Ratio (A2780/DX5 cells): 1.7; IC50 (A2780/DX5 cells): 123 nM

Which results are given for CC[C@@]1(O)C(=O)OCc2c1cc1n(c2=O)Cc2cc3ccccc3nc2-1 [CPT, (S)-4-Ethyl-4-hydroxy-1H-pyrano[3',4':6,7]indolizino[1,2-b]quinoline-3,14(4H,12H)-dione]?
mean urine recovery of CPT [2]: 17.4%; Percent of Free CPTs (human plasma proteins): 0%

With CCc1c2c(nc3ccc(OC(=O)N4CCC(N5CCCCC5)CC4)cc13)-c1cc3c(c(=O)n1C2)COC(=O)[C@]3(O)CC [CPT-11, 7-ethyl-10-[4-(1-piperidino)-1-piperidino] carbonyloxy camptothecin] as the molecule, how does the “patient deaths directly attributable to drug toxicity” value [3] read?
The value was “approximately 100”.

And the neovascularization [4]?
Its neovascularization is “significant reduction of neovascularization”.

What does the source list for CC[C@@]1(O)C(=O)OCc2c1cc1n(c2=O)Cc2c-1nc1ccc(OC)cc1c2CC[Si](C)(C)C [Compound 1, 7-(2'-Trimethylsilanyl) ethyl-10-methoxy camptothecin]?
IC50 [1]: 16.8 nM; IC50 Ratio (A2780/DX5 cells): 1.3; IC50 (A2780/DX5 cells): 21.9 nM; Percent of Free CPTs (human plasma proteins): 3.5%

What does the source list for CC[C@@]1(O)C(=O)OCc2c1cc1n(c2=O)Cc2c-1nc1ccc(OCOC)cc1c2CC[Si](C)(C)C [Compound 2, 7-(2'-Trimethylsilanyl) ethyl-10-methoxymethoxy camptothecin]?
IC50 [1]: 43.4 nM; IC50 Ratio (A2780/DX5 cells): 1.5; IC50 (A2780/DX5 cells): 64.8 nM

For CC[C@@]1(O)C(=O)OCc2c1cc1n(c2=O)Cc2c-1nc1ccc(OCCCO)cc1c2CC[Si](C)(C)C [Compound 3, 7-(2'-trimethylsilanyl) ethyl-10-(3'-hydroxypropoxy) camptothecin], which IC50 [1] is on record?
Its IC50 is 15 nM.

What about the “IC50 Ratio” value (A2780/DX5 cells) of the same molecule?
The value was 2.5.

What about the IC50 (A2780/DX5 cells) of the same molecule?
Its IC50 is 37.6 nM.

And the “Percent of Free CPTs” value (human plasma proteins)?
Its value is 6.8%.

Which IC50 [1] does the source give for CC[C@@]1(O)C(=O)OCc2c1cc1n(c2=O)Cc2c-1nc1ccc(OCCOC)cc1c2CC[Si](C)(C)C [Compound 4, 7-(2'-Trimethylsilanyl)ethyl-10-(2'-methoxyethoxy) camptothecin] here?
The IC50 was 70.1 nM.

What about the “IC50 Ratio” value (A2780/DX5 cells) of the same molecule?
The value was 1.0.

And the IC50 (A2780/DX5 cells)?
Its IC50 is 70.6 nM.

What about the “Percent of Free CPTs” value (human plasma proteins) of the same molecule?
Its value is 6%.

With CC[C@@]1(O)C(=O)OCc2c1cc1n(c2=O)Cc2c-1nc1ccc(OC(C)C)cc1c2CC[Si](C)(C)C [Compound 5, 7-(2'-Trimethylsilanyl) ethyl-10-isopropoxy camptothecin] as the molecule, how does the IC50 [1] read?
The IC50 was 86.2 nM.

What about the “IC50 Ratio” value (A2780/DX5 cells) of the same molecule?
Its value is 1.2.

What about the IC50 (A2780/DX5 cells) of the same molecule?
The IC50 was 103 nM.

Which IC50 [1] does the source give for CCOc1ccc2nc3c(c(CC[Si](C)(C)C)c2c1)C(O)n1c-3cc2c(c1=O)COC(=O)[C@]2(O)CC (stereo partly drawn) [Compound 6, 5-hydroxy-7-(2'-trimethylsilanyl) ethyl-10-ethoxy camptothecin] here?
The IC50 was 158 nM.

What about the “IC50 Ratio” value (A2780/DX5 cells) of the same molecule?
Its value is 1.1.

What about the IC50 (A2780/DX5 cells) of the same molecule?
Its IC50 is 168 nM.

Which results are given for CC[C@@]1(O)C(=O)OCc2c1cc1n(c2=O)C(O)c2c-1nc1ccc(OCC(N)=O)cc1c2CC[Si](C)(C)C (stereo partly drawn) [Compound 7, 5-Hydroxy-7-(2'-trimethylsilanyl) ethyl-10-amidomethoxy camptothecin]?
IC50 [1]: 266 nM; IC50 (A2780/DX5 cells): > 650 nM

For CC[C@@]1(O)C(=O)OCc2c1cc1n(c2=O)Cc2c-1nc1ccc(OC(=O)N(C)C)cc1c2CC[Si](C)(C)C [Compound 8, 7-(2'-trimethylsilanyl) ethyl-10-(dimethylcarbamoyloxy) camptothecin], which IC50 [1] is on record?
The IC50 was 54.8 nM.

And the “IC50 Ratio” value (A2780/DX5 cells)?
The value was 1.1.

And the IC50 (A2780/DX5 cells)?
Its IC50 is 61.1 nM.

What about the “Percent of Free CPTs” value (human plasma proteins) of the same molecule?
The value was 6.4%.

For CC[C@@]1(O)C(=O)OCc2c1cc1n(c2=O)Cc2c-1nc1ccc(OCC(N)=O)cc1c2CC[Si](C)(C)C [Compound 10, 7-(2'-Trimethylsilanyl) ethyl-10-(amidomethyloxy) camptothecin], which IC50 [1] is on record?
The IC50 was 34.1 nM.

And the “IC50 Ratio” value (A2780/DX5 cells)?
Its value is 11.8.

And the IC50 (A2780/DX5 cells)?
Its IC50 is 401 nM.

And the “Percent of Free CPTs” value (human plasma proteins)?
The value was 25%.

For CC[C@@]1(O)C(=O)OCc2c1cc1n(c2=O)Cc2c-1nc1ccc(OC(=S)N(C)C)cc1c2CC[Si](C)(C)C [Compound 13], which IC50 [1] is on record?
The IC50 was 117 nM.

And the “IC50 Ratio” value (A2780/DX5 cells)?
The value was 2.0.

What about the IC50 (A2780/DX5 cells) of the same molecule?
Its IC50 is 228 nM.

What does the source list for CCOc1ccc2nc3c(c(CC[Si](C)(C)C)c2c1)Cn1c-3cc2c(c1=O)COC(=O)[C@]2(O)CC [Compound 14, 7-(2'-Trimethylsilanyl) ethyl-10-ethoxy camptothecin]?
IC50 [1]: 14.1 nM; IC50 Ratio (A2780/DX5 cells): 1.2; IC50 (A2780/DX5 cells): 17.2 nM

What does the source list for CC[C@@]1(O)C(=O)OCc2c1cc1n(c2=O)Cc2c-1nc1ccc(OCC#N)cc1c2CC[Si](C)(C)C [Compound 15, 7-(2'-Trimethylsilanyl) ethyl-10-cyanomethoxy camptothecin]?
IC50 [1]: 9.6 nM; IC50 Ratio (A2780/DX5 cells): 2.0; IC50 (A2780/DX5 cells): 18.9 nM

With CCc1c2c(nc3ccc(O)cc13)-c1cc3c(c(=O)n1C2)COC(=O)[C@]3(O)CC [SN-38, 10-hydroxy-7-ethyl camptothecin] as the molecule, how does the “Percent of Free CPTs” value (human plasma proteins) read?
Its value is 15%.

Which “Percent of Free CPTs” value (human plasma proteins) does the source give for CC[C@@]1(O)C(=O)OCc2c1cc1n(c2=O)Cc2cc3c(CN(C)C)c(O)ccc3nc2-1 [Topotecan, 9-dimethylaminomethyl-10-hydroxy camptothecin] here?
The value was 100%.

Which “reduction of anti-tumor activity” value ([5]; carboxylate form versus lactone) does the source give for CC[C@@](O)(C(=O)O)c1cc2n(c(=O)c1CO)Cc1cc3ccccc3nc1-2 [carboxylate form of CPT] here?
The value was “at least 10 fold”.

And the “anti-tumor potency relative to the non-hydrolyzed lactone form of CPT” value ([5]; sodium hydroxide formulation, hydrolysed E-ring)?
Its value is “approximately one-tenth or less”.
